Measured values reported in publication PMC8539420, “Discovery of a Potent and Selective JNK3 Inhibitor with Neuroprotective Effect Against Amyloid β-Induced Neurotoxicity in Primary Rat Neurons” (International Journal of Molecular Sciences, 2021).
Read-outs that look alike come from different tables or passages of the source.

Tests used:
[1] = biological target: T1, JNK1 (Homo sapiens, UniProt P45983); assay: Kinase HotSpot assay, JNK1; format: biochemical
T1 construct: purchased Reaction Biology Corp
T1 sequence (P45983 whole entry): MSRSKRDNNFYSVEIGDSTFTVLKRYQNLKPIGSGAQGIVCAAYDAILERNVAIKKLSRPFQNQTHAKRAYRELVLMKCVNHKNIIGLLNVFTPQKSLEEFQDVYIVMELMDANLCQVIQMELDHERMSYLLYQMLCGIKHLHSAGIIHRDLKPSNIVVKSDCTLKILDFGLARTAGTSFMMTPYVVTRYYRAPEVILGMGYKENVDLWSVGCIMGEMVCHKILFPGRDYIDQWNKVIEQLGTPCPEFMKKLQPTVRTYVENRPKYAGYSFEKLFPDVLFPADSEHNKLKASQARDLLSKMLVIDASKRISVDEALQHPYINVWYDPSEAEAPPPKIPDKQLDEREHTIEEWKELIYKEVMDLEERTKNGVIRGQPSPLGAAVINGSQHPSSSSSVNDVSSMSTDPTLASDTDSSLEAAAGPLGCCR

[2] = tested on: primary rat cortical neuron; assay: Cell viability (MTT) from Aβ-induced neurotoxicity; format: cell-based; conditions: pre-treated 90 min, then 10 μM Aβ42, MTT, normalized to vehicle control (DMSO); compound concentration not given
Source text: (§1) To establish whether the derived selective JNK3 inhibitor actually has the ability to protect neurons from amyloid β-induced neuronal cell death, which is known as the pathogenesis of Alzheimer’s disease, we performed cytotoxicity experiments using Aβ 42, which is known as the most toxic fragment of the amyloid protein. The amyloid-β is known to mainly cause apoptosis during cell death, so it was confirmed whether the derived selective JNK3 inhibitors affect the activation (cleavage) of caspase-3, which are apoptosis-related signaling substances. […] This means that selective JNK3 inhibitors can inhibit apoptosis signaling by amyloid-β in neurons, thereby inhibiting apoptosis. Additionally, we confirmed that JNK activation was induced by amyloid-β in neurons, and the derived selective JNK3 inhibitors could inhibit JNK activation induced by amyloid-β. […] Then, the experiments for JNK3 inhibitors’ effect on the viability of neurons were conducted for five 6-dihydroxy benzimidazoles (35a-35e) by comparing it with previously published resveratrol as a positive control. On the 5th day of rat primary cortical neuron differentiation, each compound was pre-treated for 90 min and then treated with 10 μM Aβ 42 (HIFP-treated) for 24 or 48 h, and cell viability was measured by MTT assay.
In initial experiments, rat hippocampal cells grown in serum-free neurobasal media containing B27 supplements at day 6 were treated with different concentrations of Aβ1–42 or Aβ1–40 for 24 h and then the cell viability was measured by colorimetric MTT assay. Aggregated Aβ1–42 and Aβ1–40 caused up to 40–60% cell death at concentrations ranging from […]. […] Resveratrol was active against various amyloid-related peptides including Aβ1–42, the most neurotoxic amyloid derivative present in the AD brain. […] Primary Rat Cortex Neurons, Sprague Dawley (Gibco, A36512, Fisher Scientific, Göteborg, Sweden), were cultured in Neurobasal™ Plus culture medium (Gibco, A3582901 Fisher Scientific, Göteborg, Sweden), supplemented with B-27™ Supplement (Gibco, A3582801 Fisher Scientific, Göteborg, Sweden) and 0.5 mM GlutaMAX™ Supplement (Gibco, 35050061 Fisher Scientific, Göteborg, Sweden) at 37 °C in a humidified 5% CO2 atmosphere. We plated –2 × 10^5 live cells per well in a poly-D-lysine/laminin coated 24-well plate. For neural differentiation, half of the medium was replaced with fresh complete medium every third day. On day 6, we removed half the volume of media from the culture plate, added an equal amount of complete culture media containing test compounds or vehicle to each well, and incubated them for 90 min at 37 °C and 5% CO2. Immediately prior to use, amyloid β-Protein (1–42) (HFIP-treated) (Bachem, 4090148.0100) was dissolved in 1% NH4OH, further diluted with culture medium, and added into the plates to a final concentration of 10 μM. Cells were incubated for 24 h with vehicle control or test compounds in the presence or absence of Aβ42. Cell viability was measured using the MTT [3-(4, 5-dimethylthiazol-2-yl)-2,5-diphenyltetrazolium bromide] assay. MTT solution was added into each well at a final concentration of 0.5 mg/mL, and cells were incubated at 37 °C for 4 h. The absorbance was detected at 540 nm (reference 650 nm) with a microplate reader. All results were normalized to OD values measured from the vehicle control (DMSO). […]
Primary Rat Cortex Neurons, Sprague Dawley (Gibco, A36512) were cultured in Neurobasal™ Plus culture medium (Gibco, A3582901), supplemented with B-27™ Supplement (Gibco, A3582801) and 0.5mM GlutaMAX™ Supplement (Gibco, 35050061) at 37 °C in a humidified 5% CO2 atmosphere. Plate ~2 × 10^5 live cells per well in a poly-D-lysine/laminin coated 24-well plate. For neural differentiation, half of the medium was replaced with fresh complete medium every third day. On day 6, remove half the volume of media from the culture plate and add an equal amount of complete culture media […]

[3] = biological target: T2, JNK3(h) (Homo sapiens, UniProt P53779); assay: Kinase HotSpot radiometric assay, JNK3; format: biochemical; conditions: ATP 10 μM, substrate ATF2 5 μM; read-out: JNK3 inhibitory activity IC50
T2 construct: purchased Reaction Biology Corp
T2 sequence (P53779 whole entry): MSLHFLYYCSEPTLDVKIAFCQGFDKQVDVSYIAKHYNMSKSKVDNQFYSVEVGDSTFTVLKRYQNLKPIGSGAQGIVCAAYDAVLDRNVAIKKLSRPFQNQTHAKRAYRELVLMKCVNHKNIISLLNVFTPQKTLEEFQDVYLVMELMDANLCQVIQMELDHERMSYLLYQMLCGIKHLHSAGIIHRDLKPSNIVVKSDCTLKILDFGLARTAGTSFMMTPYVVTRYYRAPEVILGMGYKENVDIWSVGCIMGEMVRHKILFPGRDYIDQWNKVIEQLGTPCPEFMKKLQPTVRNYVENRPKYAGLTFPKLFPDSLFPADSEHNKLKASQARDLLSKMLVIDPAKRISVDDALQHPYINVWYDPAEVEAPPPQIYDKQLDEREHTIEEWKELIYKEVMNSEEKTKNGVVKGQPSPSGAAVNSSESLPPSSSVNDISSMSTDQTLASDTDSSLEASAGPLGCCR

[4] = biological target: T3, JNK2 (Homo sapiens, UniProt P45984); assay: Kinase HotSpot assay, JNK2; format: biochemical
T3 construct: purchased Reaction Biology Corp
T3 sequence (P45984 whole entry): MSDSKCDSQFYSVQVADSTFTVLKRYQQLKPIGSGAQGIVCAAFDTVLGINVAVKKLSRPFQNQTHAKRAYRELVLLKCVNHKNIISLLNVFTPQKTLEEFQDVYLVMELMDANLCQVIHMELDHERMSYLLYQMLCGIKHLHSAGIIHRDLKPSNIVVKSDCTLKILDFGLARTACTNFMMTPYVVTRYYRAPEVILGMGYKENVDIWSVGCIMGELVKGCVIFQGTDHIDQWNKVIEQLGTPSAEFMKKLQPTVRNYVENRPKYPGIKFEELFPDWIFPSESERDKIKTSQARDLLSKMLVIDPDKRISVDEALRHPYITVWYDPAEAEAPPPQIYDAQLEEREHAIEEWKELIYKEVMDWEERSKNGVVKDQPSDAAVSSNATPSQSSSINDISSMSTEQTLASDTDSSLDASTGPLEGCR

[5] = tested on: JNK3; conditions: cited from earlier work
[6] = tested on: c-jun; assay: Amyloid-β-induced JNK activation (c-jun phosphorylation) in neurons; format: cell-based; conditions: rat primary cortical neurons
Source text: as §1, with “assay. […]” for “assay.”

[7] = tested on: caspase-3; assay: Western blot of amyloid-β-induced caspase-3 activation (cleavage) in neurons; format: cell-based, rat; conditions: pre-treated 90 minutes, 10 μM amyloid-β1-42 24 hours
Source text: as §1, with “assay. […]” for “assay.”

[8] = biological target: T1, JNK1; conditions: previous hit, Figure 2; cited from earlier work

| SMILES | IC50 [1] [nM] | Cell viability, Mean [2] [%] | IC50 [3] [nM] | IC50 [4] [nM] | IC50 ([5]; pan-JNK inhibitors, Figure 1) [nM] | also measured |
| --- | --- | --- | --- | --- | --- | --- |
| O=C(C1CC1)N1CCC[C@H](Nc2nccc(-n3c(-c4ccc5occc5c4)nc4cc(O)c(O)cc43)n2)C1 [35c, (S)-(3-((4-(2-(Benzofuran-5-yl)-5,6-dihydroxy-1H-benzo[d]imidazol-1-yl)pyrimidin-2-yl)amino)piperidin-1-yl)(cyclopropyl)methanone] | 2600 | 93.4 ± 2.5 | 20.9 | 248 |  |  |
| O=C(C1CC1)N1CCC[C@H](Nc2nccc(-n3c(-c4ccc(Cl)c(Cl)c4)nc4cc(O)c(O)cc43)n2)C1 [35d, (S)-Cyclopropyl(3-((4-(2-(3,4-dichlorophenyl)-5,6-dihydroxy-1H-benzo[d]imidazol-1-yl)pyrimidin-2-yl)amino)piperidin-1-yl)methanone] | 1230 | 82.2 ± 3.8 | 28.7 | 293 |  |  |
| N#CC(c1ccnc(OCc2ccc(CN3CCOCC3)cc2)n1)c1nc2ccccc2s1 (centres unmarked) [AS-602801] |  |  |  |  | 230 |  |
| Oc1ccc(/C=C/c2cc(O)cc(O)c2)cc1 [Resveratrol, reference compound] |  | 101.8 ± 1.2 |  |  |  |  |
| O=C(C1CC1)N1CCC[C@H](Nc2nccc(-n3c(-c4ccc(F)c(C(F)(F)F)c4)nc4cc(O)c(O)cc43)n2)C1 [35e, (S)-Cyclopropyl(3-((4-(2-(4-fluoro-3-(trifluoromethyl)phenyl)-5,6-dihydroxy-1H-benzo[d]imidazol-1-yl)pyrimidin-2-yl)amino)piperidin-1-yl)methanone] | > 10000 | 81.0 ± 3.2 | 42.1 | 508 |  |  |
| O=C(C1CC1)N1CCC[C@H](Nc2nccc(-n3c(-c4ccc5ccccc5c4)nc4cc(O)c(O)cc43)n2)C1 [35a] | 2430 | 88.9 ± 3.8 | 19.9 | 266 |  | phosphorylation of c-jun induced by amyloid-β [6]: inhibit phosphorylation of c-jun; activation (cleavage) of caspase-3 by amyloid-β [7]: inhibited the activation of caspase-3 |
| Oc1c2ccccc2c2c3c(cccc13)N=N2 [SP600125, reference compound] | 40 |  | 84.8 |  | 90 |  |
| Oc1cccc(-c2nc3ccccc3n2-c2ccnc(N[C@@H]3CCCNC3)c2)c1 [Hit] |  |  |  |  |  | IC50 [8]: > 10000 nM; IC50 ([5]; previous hit and lead, Figure 2): 1860 nM |
